Assay results as given in paper PMC4293281 (Bioorganic & medicinal chemistry, 2014).
In brackets after ≈: the same amount, converted by molar mass.

Tests used:
SV40 T Ag = SV40 T Ag (Simian virus 40, UniProt P03070); assay: steady state ATPase assay with SV40 T Ag; format: biochemical; details: for inhibition of SV40 T Ag ATPase activity at 100 μM: final concentration 100 μM, percent activity relative to T Ag without inhibitor
human Hsp70 = human Hsp70 (Homo sapiens, UniProt P0DMV8); assay: steady state ATPase assay with human Hsp70; format: biochemical
Chain of human Hsp70 (P0DMV8 whole entry): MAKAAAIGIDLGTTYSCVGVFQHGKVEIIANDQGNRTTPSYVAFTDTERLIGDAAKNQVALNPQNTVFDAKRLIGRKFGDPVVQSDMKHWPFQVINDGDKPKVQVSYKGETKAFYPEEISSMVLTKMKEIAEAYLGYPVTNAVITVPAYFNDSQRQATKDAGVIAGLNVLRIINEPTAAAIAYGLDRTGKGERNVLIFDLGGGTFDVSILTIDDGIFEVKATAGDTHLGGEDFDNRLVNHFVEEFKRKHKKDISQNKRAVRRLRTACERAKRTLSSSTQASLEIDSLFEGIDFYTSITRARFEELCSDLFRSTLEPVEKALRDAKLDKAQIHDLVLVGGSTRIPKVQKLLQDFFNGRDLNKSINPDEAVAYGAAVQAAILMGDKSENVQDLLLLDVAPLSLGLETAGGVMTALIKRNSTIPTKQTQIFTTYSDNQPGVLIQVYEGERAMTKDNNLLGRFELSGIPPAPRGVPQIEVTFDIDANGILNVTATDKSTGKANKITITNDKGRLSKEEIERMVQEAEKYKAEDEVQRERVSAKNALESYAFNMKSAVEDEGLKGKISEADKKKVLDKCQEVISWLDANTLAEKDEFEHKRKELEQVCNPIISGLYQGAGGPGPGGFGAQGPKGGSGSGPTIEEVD

[1] = aqueous solubility by LC-HRMS; format: physicochemical; details: distilled water, 30 °C, thermodynamic from solid
[2] = target: human Hsp70 in the presence of a human J domain-containing protein (Hdj2) (Homo sapiens, UniProt P0DMV8); assay: steady state ATPase assay, Hsp70 stimulated by J domain protein Hdj2; format: biochemical; details: 100 μM versus DMSO control, 60-min time course
Chain of human Hsp70 in the presence of a human J domain-containing protein (Hdj2) (P0DMV8 whole entry): as above

[3] = target: human Hsp70 in the presence of a J domain containing yeast protein (Hlj1) (Homo sapiens, UniProt P0DMV8); assay: steady state ATPase assay, Hsp70 stimulated by J domain protein Hlj1; format: biochemical
Chain of human Hsp70 in the presence of a J domain containing yeast protein (Hlj1) (P0DMV8 whole entry): as above

SV40 = SV40 viral DNA replication assay in CV1 cells; format: cell-based, Simian Virus 40 in CV1 monkey kidney cells; details: monkey kidney cells, range of concentrations
[4] = compound stability in male mouse liver microsomes; format: in vitro ADME
HEK293 cells = assay: HEK293 cell viability; format: cell-based, human; details: 20 h incubation, Cell Titer-Glo

Chain of SV40 T Ag (P03070 whole entry): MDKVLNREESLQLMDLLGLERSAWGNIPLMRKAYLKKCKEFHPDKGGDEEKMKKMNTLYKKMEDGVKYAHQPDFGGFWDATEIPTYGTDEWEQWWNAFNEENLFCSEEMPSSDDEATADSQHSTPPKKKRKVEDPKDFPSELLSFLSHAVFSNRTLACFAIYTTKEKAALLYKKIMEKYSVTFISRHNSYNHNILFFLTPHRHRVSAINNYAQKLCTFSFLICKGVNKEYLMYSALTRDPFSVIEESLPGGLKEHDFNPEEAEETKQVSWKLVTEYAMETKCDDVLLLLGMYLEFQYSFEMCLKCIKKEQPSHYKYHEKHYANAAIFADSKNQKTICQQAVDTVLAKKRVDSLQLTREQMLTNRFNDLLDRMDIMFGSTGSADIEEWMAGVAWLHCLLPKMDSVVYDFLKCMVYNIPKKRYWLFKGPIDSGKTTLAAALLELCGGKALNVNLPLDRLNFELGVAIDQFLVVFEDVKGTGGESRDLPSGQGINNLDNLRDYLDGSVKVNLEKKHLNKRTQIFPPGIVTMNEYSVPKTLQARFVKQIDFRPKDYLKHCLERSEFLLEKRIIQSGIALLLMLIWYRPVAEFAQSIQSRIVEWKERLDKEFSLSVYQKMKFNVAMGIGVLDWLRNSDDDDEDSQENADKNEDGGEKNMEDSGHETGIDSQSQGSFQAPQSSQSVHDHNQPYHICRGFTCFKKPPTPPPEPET

Compound: CC1=C(C(=O)OCc2ccccc2)C(c2ccc(-c3ccccc3)cc2)NC(=O)N1CCCCCC(=O)NS(C)(=O)=O (stereo not drawn) [ML282-66, Benzyl 4-([1,1′-biphenyl]-4-yl)-6-methyl-1-(6-(methylsulfonamido)-6-oxohexyl)-2-oxo-1,2,3,4-tetrahydropyrimidine-5-carboxylate]
- inhibition of SV40 T Ag ATPase activity at 100 μM (SV40 T Ag): inhibited T Ag ATPase activity
- inhibition of SV40 T Ag ATPase activity at 30 μM (SV40 T Ag; titration, 30 μM): reduced compared to ML282-56

Compound: CC1=C(C(=O)OCc2ccccc2)C(c2ccc(-c3ccccc3C)cc2)NC(=O)N1CCCCCc1nnn[nH]1 (stereo not drawn) [LR340-006, Benzyl 1-(5-(1H-tetrazol-5-yl)pentyl)-6-methyl-4-(2′-methyl-[1,1′-biphenyl]-4-yl)-2-oxo-1,2,3,4-tetrahydropyrimidine-5-carboxylate]
- IC50 (SV40 T Ag): ~50 µM
- inhibition of SV40 T Ag ATPase activity, titration (SV40 T Ag; titration at 10, 30 and 100 μM): most potent

Compound: CC1=C(C(=O)OCc2ccccc2)C(c2ccc(-c3ccccc3C)cc2)NC(=O)N1Cc1ccc(-c2nnn[nH]2)cc1 (stereo not drawn) [SMAL, Benzyl 1-(4-(1H-tetrazol-5-yl)benzyl)-6-methyl-4-(2′-methyl-[1,1′-biphenyl]-4-yl)-2-oxo-1,2,3,4-tetrahydropyrimidine-5-carboxylate]
- IC50 (human Hsp70): ~24 µM
- inhibition of endogenous Hsp70 ATPase activity at 30 μM (human Hsp70; final concentration 30 μM versus DMSO control): inhibited the endogenous activity of Hsp70
- solubility at 24 h [1]: 62.4 ± 3.1 µg/mL (≈ 109 µM)
- inhibition of Hdj2 activation of Hsp70 ATPase [2]: stronger than MAL2-11B tetrazole
- IC50 [3]: > 30 µM
- inhibition of SV40 replication (viral DNA by qPCR) (SV40): inhibited viral replication
- IC50 (SV40 T Ag): ~5 µM
- compound remaining after 60 min incubation ([4]; male mouse liver microsomes, NADPH, 1 h): ~ 68%
- stability in liver microsomes ([4]; murine liver microsomes): quite stable

Compound: CC1=C(C(=O)OCc2ccccc2)C(c2ccc(-c3ccccc3)cc2)NC(=O)N1Cc1ccc(-c2nnn[nH]2)cc1 (stereo not drawn) [ML282-56, Benzyl 1-(4-(1H-tetrazol-5-yl)benzyl)-4-([1,1′-biphenyl]-4-yl)-6-methyl-2-oxo-1,2,3,4-tetrahydropyrimidine-5-carboxylate]
- solubility at 24 h [1]: 14.4 ± 0.5 µg/mL (≈ 25.9 µM)
- inhibition of SV40 replication (viral DNA by qPCR) (SV40): inhibited viral replication
- IC50 (SV40 T Ag): ~50 µM
- inhibition of SV40 T Ag ATPase activity at 100 μM (SV40 T Ag): inhibited T Ag ATPase activity

Compound: CN[C@@H]1C[C@H]2O[C@@](C)([C@@H]1OC)n1c3ccccc3c3c4c(c5c6ccccc6n2c5c31)C(=O)NC4 [Staurosporine]
- LD50 (HEK293 cells): < 3 µM
